This note sets out measurements from patent US9776987B2, “Amide derivatives for GPR119 agonist” (CHONG KUN DANG PHARMACEUTICAL CORP., priority 2013, dated 2017).

Converted amounts (≈) assume the structure as drawn. Where two headings read alike, the source gives them in different places. Bounds are passed on as bounds.

The nature of data set [1]: Solubility test of GPR 119 agonist compounds (Nephelostar). Type of data set: physicochemical. The settings on record: aqueous with cosolvent or surfactant or cyclodextrin, kinetic from dmso stock. On the procedure:
1. Method of Solubility Test
Each test compounds were dissolved in 5% DMSO aqueous solution as a solvent at several concentrations. When a laser was irradiated to the solution, the particles, which are not dissolved in the solvent, scatter the light. The level of the scattered light is dependent to the number of the particles, so the solubility of the test compound in the solution can be determined using the relationship. As the test equipment, Nephelostar was used.

The target of a further data set is T1, human GPR119 receptor (Homo sapiens, UniProt Q8TDV5).
T1 construct: host or cells: GeneBLAzer T-Rex GPR 119 CHO-K1 DA cells (CHO-K1)
T1 sequence (Q8TDV5 1-335): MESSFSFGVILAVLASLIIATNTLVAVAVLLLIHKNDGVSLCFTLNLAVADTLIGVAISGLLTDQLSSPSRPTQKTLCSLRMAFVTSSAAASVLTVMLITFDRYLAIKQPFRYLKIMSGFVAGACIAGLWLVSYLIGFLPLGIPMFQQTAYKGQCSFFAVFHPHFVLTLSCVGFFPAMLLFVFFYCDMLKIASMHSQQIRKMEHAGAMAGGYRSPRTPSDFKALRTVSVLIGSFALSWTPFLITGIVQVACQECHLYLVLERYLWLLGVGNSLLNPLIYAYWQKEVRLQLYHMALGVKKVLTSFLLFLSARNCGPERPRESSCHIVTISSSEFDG
Nature of the data set: Activity test for human GPR119 receptor (GeneBLAzer T-Rex GPR 119 CHO-K1 DA cells). The settings on record: for EC50: human GPR119 receptor expressing CHO-K1 cells, 5 hours treatment, read-out: hGPR119 EC50; for activity for human GPR119 receptor (in words): judgement on the EC50 values of Table 11. It counts as cell-based. On the procedure: 1. Human GPR119 Receptor Cell
As a human GPR119 receptor expression cell for this test, the cell line “GeneBLAzer™ T-Rex GPR 119 CHO-K1 DA cells” that is commercially available from Invitrogen, was used. The cell was incubated in the DMEM media containing 1% dialyzed fetal bovine serum etc. The cell incubator was kept at constant temperature and constant humidity of 37° C., 5% CO2.
2. Activity Test for Human GPR119 Receptor
The human GPR119 receptor expressing cell was used to this test. Each of test compounds was added to be final concentrations of 0.1, 1, 10 μM in 96 well and tested in duplicate. A fixed amount of cell was added to each well of 96 well separately, and then treated with the test compound for 5 hours. After treatment of color development agent for 2 hours, the fluorescence value was determined with plate reader. To the luminous wavelength of control well, which was not treated with the sample, but in which only a vehicle […] was contained, the ratio of the luminous wavelength of test well, which was treated with the sample, was calculated, and then converted to obtain EC50 value.
3. Statistical Processing
All the results were expressed as mean±SD, and each test groups and the control group were compared using student's t-test to adjudge the effects of each test groups.

[2] abbreviates: pH 2, 5% DMSO aqueous solution, read-out: Solubility pH 2.
Setting [3] is: pH 4, 5% DMSO aqueous solution, read-out: Solubility pH 4.
Where [4] appears, read: pH 6, 5% DMSO aqueous solution, read-out: Solubility pH 6.
[5] abbreviates: pH 8, 5% DMSO aqueous solution, read-out: Solubility pH 8.

In the case of `CCC(F)(CC)CN1CCC(COc2ccc(-c3ccc(C(=O)N4C[C@H](O)C[C@H]4C(N)=O)cc3F)cc2)CC1` [Compound 1205], the solubility (commonly the dissolved amount per volume that the medium holds) is more than 271 µg/mL in data set [1] (setting [2]), more than 271 µg/mL in data set [1] (setting [3]), 157 µg/mL (≈ 289 µM) in data set [1] (setting [4]) and 55 µg/mL (≈ 101 µM) in data set [1] (setting [5]). For the same compound, the concentration giving a half-maximal response (EC50) (as a rule, the concentration needed to bring the measured effect to its halfway point) on human GPR119 receptor was 2 nM.

`C[C@@]1(C(N)=O)CCCN1C(=O)c1ccc(-c2cnc(OCC3CCN(CC4(C(F)(F)F)CCC4)CC3)cn2)cc1F` [Compound 1263, (S)-1-(2-fluoro-4-(5-((1-((1-(trifluoromethyl)cyclobutyl)methyl)piperidin-4-yl)methoxy)pyrazin-2-yl)benzoyl)-2-methylpyrrolidin-2-carboxamide]: at human GPR119 receptor, the EC50 came out at 0.04 nM and the “activity for human GPR119 receptor (in words)” value (shortened to “activity”) is “excellent activity”.

Take `NC(=O)[C@@H]1CCCN1C(=O)c1ccc(-c2ccc(OCC3CCN(CC(F)(F)C(F)(F)F)CC3)cn2)cc1F` [Compound 1264, (S)-1-(2-fluoro-4-(5-((1-(2,2,3,3,3-pentafluoropropyl)piperidin-4-yl)methoxy)pyridin-2-yl)benzoyl)pyrrolidin-2-carboxamide]: on human GPR119 receptor, the EC50 was 0.09 nM and the “activity” value is “excellent activity”.

In the case of `NC(=O)[C@@H]1C[C@@H](O)CN1C(=O)c1ccc(-c2ccc(OCC3CCN(CC(F)(F)C(F)(F)F)CC3)cn2)cc1F` [Compound 1265, (2S,4R)-1-(2-fluoro-4-(5-((1-(2,2,3,3,3-pentafluoropropyl)piperidin-4-yl)methoxy)pyridin-2-yl)benzoyl)-4-hydroxypyrrolidin-2-carboxamide], on human GPR119 receptor, the EC50 was found to be 0.05 nM and the “activity” value is on record as “excellent activity”.

As to `CC(C)(CN1CCC(COc2ccc(-c3ccc(C(=O)N4CCC[C@H]4C(N)=O)c(F)c3)nc2)CC1)C(F)(F)F` [Compound 1267, (S)-1-(2-fluoro-4-(5-((1-(3,3,3-trifluoro-2,2-dimethylpropyl)piperidin-4-yl)methoxy)pyridin-2-yl)benzoyl)pyrrolidin-2-carboxamide], at human GPR119 receptor, the EC50 was 0.09 nM and the “activity” value is reported as “excellent activity”.

For `CC(C)(CN1CCC(COc2ccc(-c3ccc(C(=O)N4C[C@H](O)C[C@H]4C(N)=O)c(F)c3)nc2)CC1)C(F)(F)F` [Compound 1268, (2S,4R)-1-(2-fluoro-4-(5-((1-(3,3,3-trifluoro-2,2-dimethylpropyl)piperidin-4-yl)methoxy)pyridin-2-yl)benzoyl)-4-hydroxypyrrolidin-2-carboxamide], the solubility was more than 283 µg/mL in data set [1] (setting [2]), more than 283 µg/mL in data set [1] (setting [3]), more than 283 µg/mL in data set [1] (setting [4]) and 54 µg/mL (≈ 95.3 µM) in data set [1] (setting [5]). The EC50 on human GPR119 receptor came out at 0.07 nM. The “activity” value on human GPR119 receptor was “excellent activity”.

On to `CC(C)(CN1CCC(COc2ccc(-c3ccc(C(=O)N4CCC[C@@]4(C)C(N)=O)c(F)c3)nc2)CC1)C(F)(F)F` [Compound 1269, (S)-1-(2-fluoro-4-(5-((1-(3,3,3-trifluoro-2,2-dimethylpropyl)piperidin-4-yl)methoxy)pyridin-2-yl)benzoyl)-2-methylpyrrolidin-2-carboxamide], for which, on human GPR119 receptor, the EC50 amounted to 0.09 nM and the “activity” value was “excellent activity”.

With `CC(C)(F)CN1CCC(COc2ccc(-c3ccc(C(=O)N4C[C@H](O)C[C@@]4(C)C(N)=O)c(F)c3)cc2C#N)CC1` [Compound 1276, (2S,4R)-1-(3′-cyano-3-fluoro-4′-((1-(2-fluoro-2-methylpropyl)piperidin-4-yl)methoxy)biphenylcarbonyl)-4-hydroxy-2-methylpyrrolidin-2-carboxamide], the EC50 on human GPR119 receptor amounted to 24 nM.

For `NC(=O)[C@@H]1C[C@@H](O)CN1C(=O)c1ccc(-c2ccc(OCC3CCN(CC4(C(F)(F)F)CCC4)CC3)cn2)cc1F` [Compound 1280, (2S,4R)-1-(2-fluoro-4-(5-((1-((1-(trifluoromethyl)cyclobutyl)methyl)piperidin-4-yl)methoxy)pyridin-2-yl)benzoyl)-4-hydroxypyrrolidin-2-carboxamide], on human GPR119 receptor, the EC50 was found to be 38 nM and the “activity” value is “excellent activity”.

In the case of `NC(=O)[C@@H]1C[C@@H](O)CN1C(=O)c1ccc(-c2ccc(OCC3CCN(CC4(C(F)(F)F)CCC4)CC3)cn2)c(F)c1` [Compound 1286, (2S,4R)-1-(3-fluoro-4-(5-((1-((1-(trifluoromethyl)cyclobutyl)methyl)piperidin-4-yl)methoxy)pyridin-2-yl)benzoyl)-4-hydroxypyrrolidin-2-carboxamide], the solubility in data set [1] (setting [2]) was more than 289 µg/mL; in data set [1] (setting [3]) it was more than 289 µg/mL; in data set [1] (setting [4]), more than 289 µg/mL; in data set [1] (setting [5]), 108 µg/mL (≈ 187 µM). The EC50 on human GPR119 receptor came out at 3 nM. Also, at human GPR119 receptor, the “activity” value is reported as “excellent activity”.

Take `CCC(F)(CC)CN1CCC(COc2ccc(-c3ccc(C(=O)N4C[C@H](O)C[C@H]4C(N)=O)cc3F)nc2)CC1` [Compound 1287, (2S,4R)-1-(4-(5-((1-(2-ethyl-2-fluorobutyl)piperidin-4-yl)methoxy)pyridin-2-yl)-3-fluorobenzoyl)-4-hydroxypyrrolidin-2-carboxamide]: on human GPR119 receptor, the concentration for a half-maximal effect (EC50) came to 20 nM.

`CC(C)(CN1CCC(COc2ccc(-c3ccc(C(=O)N4C[C@H](O)C[C@@]4(C)C(N)=O)c(F)c3)cn2)CC1)C(F)(F)F` [Compound 1295, (2S,4R)-1-(2-fluoro-4-(6-((1-(3,3,3-trifluoro-2,2-dimethylpropyl)piperidin-4-yl)methoxy)pyridin-3-yl)benzoyl)-4-hydroxy-2-methylpyrrolidin-2-carboxamide]: at human GPR119 receptor, the EC50 stood at 18 nM and the “activity” value is listed as “excellent activity”.

On to `C[C@@]1(C(N)=O)CCCN1C(=O)c1ccc(-c2ccc(OCC3CCN(CC4(C(F)(F)F)CCC4)CC3)cn2)cc1F` [Compound 1297, (S)-1-(2-fluoro-4-(5-((1-((1-(trifluoromethyl)cyclobutyl)methyl)piperidin-4-yl)methoxy)pyridin-2-yl)benzoyl)-2-methylpyrrolidin-2-carboxamide], for which, at human GPR119 receptor, the EC50 is 4 nM and the “activity” value is listed as “excellent activity”.

Consider `CCC(F)(CC)CN1CCC(COc2ccc(-c3ccc(C(=O)N4CCC[C@@]4(C)C(N)=O)c(F)c3)nc2)CC1` [Compound 1299, (S)-1-(4-(5-((1-(2-ethyl-2-fluorobutyl)piperidin-4-yl)methoxy)pyridin-2-yl)-2-fluorobenzoyl)-2-methylpyrrolidin-2-carboxamide], for which, on human GPR119 receptor, the EC50 was 9 nM and the “activity” value is recorded as “excellent activity”.

Turning to `CCC(F)(CC)CN1CCC(COc2ccc(-c3ccc(C(=O)N4C[C@H](O)C[C@@]4(C)C(N)=O)cc3)nc2)CC1` [Compound 1309, (2S,4R)-1-(4-(5-((1-(2-ethyl-2-fluorobutyl)piperidin-4-yl)methoxy)pyridin-2-yl)benzoyl)-4-hydroxy-2-methylpyrrolidin-2-carboxamide], at human GPR119 receptor, the EC50 was determined as 47 nM.

As for `NC(=O)[C@@H]1C[C@@H](O)CN1C(=O)c1ccc(-c2ccc(OCC3CCN(CC4(C(F)(F)F)CCC4)CC3)nc2)cc1F` [Compound 1317, (2S,4R)-1-(2-fluoro-4-(6-((1-((1-(trifluoromethyl)cyclobutyl)methyl)piperidin-4-yl)methoxy)pyridin-3-yl)benzoyl)-4-hydroxypyrrolidin-2-carboxamide], at human GPR119 receptor, the EC50 is 60 nM.

`CCC(F)(CC)CN1CCC(COc2ccc(-c3ccc(C(=O)N4C[C@H](O)C[C@@H]4C(N)=O)cc3F)cc2)CC1` [Compound 1321, (2R,4R)-1-(4′-((1-(2-ethyl-2-fluorobutyl)piperidin-4-yl)methoxy)-2-fluorobiphenylcarbonyl)-4-hydroxypyrrolidin-2-carboxamide]: the EC50 on human GPR119 receptor came to 53 nM.

Regarding `C[C@@]1(C(N)=O)C[C@@H](O)CN1C(=O)c1ccc(-c2ccc(OCC3CCN(CC4(C(F)(F)F)CCC4)CC3)nc2)cc1F` [Compound 1326, (2S,4R)-1-(2-fluoro-4-(6-((1-((1-(trifluoromethyl)cyclobutyl)methyl)piperidin-4-yl)methoxy)pyridin-3-yl)benzoyl)-4-hydroxy-2-methylpyrrolidin-2-carboxamide], the EC50 at human GPR119 receptor turned out to be 50 nM.
